Columns and labels:
E. coli [1] = assay: E. coli growth inhibition test, OD at 595 nm; format: cell-based
Method: Overnight cultures of E. coli cells (OneShot® Chemically Competent E. Coli, Cat. No. C4040-10, Invitrogen) in LB media (Cat. No. X968.2, Carl-Roth, Germany) were initially done. For the growth inhibition tests cultures were prepared by initially dispersing VO(acac)2 (Sigma Aldrich, 0.08 mg/ml) in 5 ml LB medium to which KBr (1 mM) and H2O2 (100 μM) were added. To start the culture 20 μl of the overnight E. coli stock was added. The cultures were kept at 37° C. with agitation, and the OD was measured at 595 nm at different time points until 180 min (beginning of stationary phase). As controls either only VO(acac)2 or only H2O2/Br^− was added to the cultures in the concentrations given above. For comparative purposes the same assay was done with V2O5 nanowires (Example 1) in the same concentration range as VO(acac)2 (0.08 mg/ml).

E. coli [2] = assay: Biocidal rosine paint formulations on steel plates, DAPI fluorescence, qualitative; format: cell-based; settings: Br- 1 mM, H2O2, 3 days at 37° C.
Method: A self-polishing rosine formulation was prepared as follows: 22 g of Rosine/Kolophonium (Aldrich) was mixed with 8 g Xylene (Aldrich) and stirred 45 min until well dissolved. Under continuous stirring 0.4 g Thixatrol Max (Elementis) and 1.5 g Bentone SD 1 (Elementis) were added and stirred for at least 5 min. Under continuous stirring 10 g zinc oxide (Aldrich) [optional], 9 g iron oxide red (Aldrich) [optional], 15 g talcum (Aldrich), ×g of biocide and 10-×g of barium sulfate as a filler were added, and the whole mixture was dispersed for at least 15 min at 600-900 rpm. Under stirring 8 g Xylene (Aldrich), 6.7 g Hordaflex LC 50 (Leuna-Tenside) and 8 g petrol 140/180 (Merck) were added.
Steel plates of 2×2 cm were painted directly with no previous treatment with said rosine formulation by brushing and drying for 3 days at room temperature. No surface characterization was performed. […]
After incubation the substrates were gently washed with LB media and PBS buffer. Bacterial cells were stained with […] (DAPI, 1 mg/ml), and fluorescence analysis was performed using an Olympus AHBT3 light microscope together with an AH3-RFC reflected light fluorescence attachment. The presence of bacterial colonies was easily detected by the presence of bright blue “dots” or “clusters”. […]

V-CPO from C. inaequalis = V-CPO from C. inaequalis (Curvularia inaequalis, UniProt P49053, L241V/P395D/T343A); settings: cited from earlier work
Sequence of V-CPO from C. inaequalis (P49053 whole entry L241V/T343A/P395D): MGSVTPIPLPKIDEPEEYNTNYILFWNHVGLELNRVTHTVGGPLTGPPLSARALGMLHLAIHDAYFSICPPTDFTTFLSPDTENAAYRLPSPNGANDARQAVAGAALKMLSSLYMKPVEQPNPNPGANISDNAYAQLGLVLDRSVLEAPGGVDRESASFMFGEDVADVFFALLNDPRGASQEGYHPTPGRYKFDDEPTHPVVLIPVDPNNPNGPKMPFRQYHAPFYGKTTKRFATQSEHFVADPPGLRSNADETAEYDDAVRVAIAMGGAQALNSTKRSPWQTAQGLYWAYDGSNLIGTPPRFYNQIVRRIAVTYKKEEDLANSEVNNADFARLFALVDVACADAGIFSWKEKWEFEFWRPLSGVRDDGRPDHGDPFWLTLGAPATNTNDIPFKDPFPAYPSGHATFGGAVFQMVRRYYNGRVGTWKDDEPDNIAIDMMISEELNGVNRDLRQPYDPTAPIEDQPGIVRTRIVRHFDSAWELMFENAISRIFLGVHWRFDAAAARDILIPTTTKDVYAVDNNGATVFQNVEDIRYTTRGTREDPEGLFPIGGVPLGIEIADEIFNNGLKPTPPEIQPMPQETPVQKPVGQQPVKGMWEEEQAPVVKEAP

Row | Molecule | Decay in E. coli growth (%) (E. coli [1]; 0.08 mg/ml, KBr 1 mM, H2O2 100 μM as named in sample, 180 min) | antimicrobial activity by itself (E. coli [1]; without H2O2/Br-) | adherence of E. coli to painted surface (E. coli [2]; 0.5% biocide in dry film) | adherence of E. coli to painted surface (E. coli [2]; 10% biocide in dry film) | optimal pH (V-CPO from C. inaequalis)
1 | Vanadyl acetylacetonate [VO(acac)2] | 6% | no relevant antimicrobial activity | inhibited the adhesion of E. coli | inhibited the adhesion of E. coli | 
2 | wild-type V-CPO from C. inaequalis: wild-type vanadium chloroperoxidase from C. inaequalis (protein, UniProt P49053 1-609, looked up) Vanadium chloroperoxidase: MGSVTPIPLPKIDEPEEYNTNYILFWNHVGLELNRVTHTVGGPLTGPPLSARALGMLHLAIHDAYFSICPPTDFTTFLSPDTENAAYRLPSPNGANDARQAVAGAALKMLSSLYMKPVEQPNPNPGANISDNAYAQLGLVLDRSVLEAPGGVDRESASFMFGEDVADVFFALLNDPRGASQEGYHPTPGRYKFDDEPTHPVVLIPVDPNNPNGPKMPFRQYHAPFYGKTTKRFATQSEHFLADPPGLRSNADETAEYDDAVRVAIAMGGAQALNSTKRSPWQTAQGLYWAYDGSNLIGTPPRFYNQIVRRIAVTYKKEEDLANSEVNNADFARLFALVDVACTDAGIFSWKEKWEFEFWRPLSGVRDDGRPDHGDPFWLTLGAPATNTNDIPFKPPFPAYPSGHATFGGAVFQMVRRYYNGRVGTWKDDEPDNIAIDMMISEELNGVNRDLRQPYDPTAPIEDQPGIVRTRIVRHFDSAWELMFENAISRIFLGVHWRFDAAAARDILIPTTTKDVYAVDNNGATVFQNVEDIRYTTRGTREDPEGLFPIGGVPLGIEIADEIFNNGLKPTPPEIQPMPQETPVQKPVGQQPVKGMWEEEQAPVVKEAP |  |  |  |  | 5.5

From patent publication US20150191606A1, “USE OF VANADIUM-CONTAINING PARTICLES AS A BIOCIDE” (priority 2012, published 2015)
